From the supplement of paper PMC11061612

Assays:
Assay in all cases: Bliss excess, mean over the matrix (fraction); higher = more synergy
[1] = test system: T84 (Colorectal Carcinoma)
Outline: (§1)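 Bliss excess equals the observed combination effect minus the expected value EA + EB − EA·EB, where EA and EB are the effects of each agent alone. Combination Emax is the second-highest inhibition within the matrix. Inhibition was scaled from CellTiter-Glo 2.0 luminescence, with 0 set by vehicle wells and 1 by blank wells, after 72 hours of two-drug dosing of cells plated in 1536-well plates.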

[2] = test system: Raji (Burkitt's Lymphoma)
Outline: as §1

[3] = test system: MONO-MAC-6 (Acute Myeloid Leukemia)
Outline: as §1

[4] = test system: DBTRG-05MG (Glioblastoma)
Outline: as §1

[5] = test system: COR-L88 (Small Cell Lung Carcinoma)
Outline: as §1

[6] = test system: SAT (Head and Neck Carcinoma)
Outline: as §1

[7] = test system: MOLT-13 (T-Lymphoblastic Leukemia)
Outline: as §1

SK-N-SH (Neuroblastoma) = test system: SK-N-SH (Neuroblastoma)
Outline: as §1

[8] = test system: NCI-H1341 (Small Cell Lung Carcinoma)
Outline: as §1

[9] = test system: IA-LM (Non-Small Cell Lung Carcinoma)
Outline: as §1

[10] = test system: BHT-101 (Thyroid Gland Carcinoma)
Outline: as §1

[11] = test system: SiHa (Cervical Carcinoma)
Outline: as §1

[12] = test system: MS-1 (Small Cell Lung Carcinoma)
Outline: as §1

[13] = test system: TUR (Acute Myeloid Leukemia)
Outline: as §1

AM-38 (Glioblastoma) = test system: AM-38 (Glioblastoma)
Outline: as §1

IST-MEL1 (Melanoma) = test system: IST-MEL1 (Melanoma)
Outline: as §1

NCI-H226 (Mesothelioma) = test system: NCI-H226 (Mesothelioma)
Outline: as §1

[14] = test system: NMC-G1 (Low Grade Glioma)
Outline: as §1

[15] = test system: HT-1080 (Other Solid Carcinomas)
Outline: as §1

[16] = test system: SNU-C2B (Colorectal Carcinoma)
Outline: as §1

Structure (SMILES)	Bliss excess [1]	Bliss excess [2]	Bliss excess [3]	Bliss excess [4]	Bliss excess [5]	Bliss excess [6]	Bliss excess [7]	Bliss excess (SK-N-SH (Neuroblastoma))	Bliss excess [8]	Bliss excess [9]	Bliss excess [10]	Bliss excess [11]	Bliss excess [12]	Bliss excess [13]	Bliss excess (AM-38 (Glioblastoma))	Bliss excess (IST-MEL1 (Melanoma))	Bliss excess (NCI-H226 (Mesothelioma))	Bliss excess [14]	Bliss excess [15]	Bliss excess [16]
COc1cccc(OCCCN)c1-c1cc(Nc2cnc(C#N)cn2)n[nH]1 [Prexasertib] + CN(C)CCCOc1ccc(-c2ccc3ncc4c(c3c2)n(C2CCOCC2)c(=O)n4C)cn1 [AZD0156] (first compound max 1 µM, 7x7, partner max 1 µM)	0.0016	-0.0105	0.0031	-0.0209	-0.0137	-0.0158	0.0118	-0.0496	-0.032	-0.0364	0.0275	0.0003	0.0205	0.013	0.0112	-0.05	-0.0611	-0.0134	0.0241	-0.0133
COc1cccc(OCCCN)c1-c1cc(Nc2cnc(C#N)cn2)n[nH]1 [Prexasertib] + C[C@@H]1COCCN1C2=NC(=NC(=C2)C3(CC3)[S@](=N)(=O)C)C4=C5C=CNC5=NC=C4 [AZD6738] (first compound max 1 µM, 7x7, partner max 10 µM)	-0.0026	-0.0472	0.0104	-0.0378	-0.0483	-0.0238	0.002	-0.0425	-0.0683	0.0439	0.0322	0.0191	-0.0136	0.0298	-0.0074	-0.0131	0.01	0.0155	-0.0089	-0.0274
COc1cccc(OCCCN)c1-c1cc(Nc2cnc(C#N)cn2)n[nH]1 [Prexasertib] + Cc1cc2ncnn2cc1Nc1ncc2c(n1)n(C1CCOCC1)c(=O)n2C [AZD7648] (first compound max 1 µM, 7x7, partner max 10 µM)	-0.0904	-0.0135	0.0406	-0.0105	-0.0628	-0.0294	0.004	-0.0138	0.0194	0.0324	0.0399	-0.0174	-0.0228	-0.0005	0.0296	-0.0046	-0.0568	-0.0374	0.0234	-0.0356
COc1cccc(OCCCN)c1-c1cc(Nc2cnc(C#N)cn2)n[nH]1 [Prexasertib] + O=C(c1cc(Cc2n[nH]c(=O)c3ccccc23)ccc1F)N1CCN(C(=O)C2CC2)CC1 [Olaparib] (first compound max 1 µM, 7x7, partner max 10 µM)	-0.0119	0.0082	-0.0195	-0.025	-0.157	-0.0473	0.0013	-0.0217	-0.0022	-0.0456	-0.0528	0.0226	-0.0481	-0.0181	0.0359	-0.124	-0.0802	-0.0325	0.0164	-0.0414
COc1cc2c(cc1OCCCCCOc1cc3c(cc1OC)C(=O)N1C=C(C)C[C@H]1C=N3)N=C[C@@H]1CC(C)=CN1C2=O [SG3199] + O=C(c1cc(Cc2n[nH]c(=O)c3ccccc23)ccc1F)N1CCN(C(=O)C2CC2)CC1 [Olaparib] (first compound max 0.001 µM, 7x7, partner max 10 µM)	-0.0279	0.0002	-0.015	-0.0357	-0.0133	-0.0203	0.018	-0.0454	-0.0059	-0.0401	-0.009	-0.0291	0.0418	0.0081	-0.0032	-0.0196	-0.0581	-0.0625	-0.02	-0.0374
CCc1c2c(nc3ccc(O)cc13)-c1cc3c(c(=O)n1C2)COC(=O)[C@]3(O)CC [SN-38] + CN(C)CCCOc1ccc(-c2ccc3ncc4c(c3c2)n(C2CCOCC2)c(=O)n4C)cn1 [AZD0156] (first compound max 0.3 µM, 7x7, partner max 1 µM)	0.108	-0.0003	0.0746	-0.019	-0.0636	0.0361	0.085	-0.104	-0.0226	-0.0369	0.0664	-0.0241	-0.0384	0.0516	0.149	-0.0785	-0.0287	-0.0202	0.0132	0.0089
CC(=O)Nc1cccc(-n2c(=O)n(C3CC3)c(=O)c3c(Nc4ccc(I)cc4F)n(C)c(=O)c(C)c32)c1 [Trametinib] + Cc1nc(-c2cn3c(n2)-c2ccc(-c4cnn(C(C)(C)C(N)=O)c4)cc2OCC3)n(C(C)C)n1 [Taselisib] (first compound max 1 µM, 7x7, partner max 10 µM)	0.233	0.0075	0.244	0.0957	0.0085	-0.0373	0.153	0.077	0.183	0.0972	0.115	0.0162	0.0912	0.157	0.117	0.122	0.003	0.0478	0.0288	0.114
CC1(C)CCC(CN2CCN(c3ccc(C(=O)NS(=O)(=O)c4ccc(NCC5CCOCC5)c([N+](=O)[O-])c4)c(Oc4cnc5[nH]ccc5c4)c3)CC2)=C(c2ccc(Cl)cc2)C1 [Venetoclax] + C1CN(CCC1(C(=O)N[C@@H](CCO)C2=CC=C(C=C2)Cl)N)C3=NC=NC4=C3C=CN4 [Capivasertib] (first compound max 1 µM, 7x7, partner max 3 µM)	-0.0518	-0.0008	-0.0214	-0.0522	-0.0181	-0.0422	0.0354	-0.0998	0.0321	-0.057	-0.0312	-0.002	-0.0572	-0.0176	-0.0742	-0.0762	-0.0673	-0.0683	-0.0351	-0.0833
CC1(C)CCC(CN2CCN(c3ccc(C(=O)NS(=O)(=O)c4ccc(NCC5CCOCC5)c([N+](=O)[O-])c4)c(Oc4cnc5[nH]ccc5c4)c3)CC2)=C(c2ccc(Cl)cc2)C1 [Venetoclax] + C=CCn1c(=O)c2cnc(Nc3ccc(N4CCN(C)CC4)cc3)nc2n1-c1cccc(C(C)(C)O)n1 [AZD1775] (first compound max 1 µM, partner max 1 µM)	-0.0498	-0.023	0.0336	-0.0476	0.0736	-0.0537	0.0723	0.0526	0.101	-0.0386	-0.0626	-0.0527	0.0465	-0.0071	-0.0561	0.0462	-0.0296	0.0064	-0.0359	-0.009
CC1(C)CCC(CN2CCN(c3ccc(C(=O)NS(=O)(=O)c4ccc(NCC5CCOCC5)c([N+](=O)[O-])c4)c(Oc4cnc5[nH]ccc5c4)c3)CC2)=C(c2ccc(Cl)cc2)C1 [Venetoclax] + CCN(CCO)CCCOc1ccc2c(Nc3cc(CC(=O)Nc4cccc(F)c4)[nH]n3)ncnc2c1 [AZD2811] (first compound max 1 µM, 7x7, partner max 1 µM)	-0.0249	-0.016	0.101	-0.0171	0.053	-0.0043	0.055	0.0471	0.0606	-0.053	-0.0256	-0.0107	-0.045	0.0132	-0.0506	0.0278	-0.0604	-0.0253	-0.0407	0.0098
CC1(C)CCC(CN2CCN(c3ccc(C(=O)NS(=O)(=O)c4ccc(NCC5CCOCC5)c([N+](=O)[O-])c4)c(Oc4cnc5[nH]ccc5c4)c3)CC2)=C(c2ccc(Cl)cc2)C1 [Venetoclax] + CN(C)CCCOc1ccc(-c2ccc3ncc4c(c3c2)n(C2CCOCC2)c(=O)n4C)cn1 [AZD0156] (first compound max 1 µM, 7x7, partner max 1 µM)	-0.0452	0.0279	0.0233	-0.008	-0.0237	-0.015	0.0928	-0.0542	0.007	-0.0238	-0.0272	-0.0419	0.0128	-0.0102	-0.0183	-0.0207	-0.0536	-0.0373	-0.0434	-0.0135
CC1(C)CCC(CN2CCN(c3ccc(C(=O)NS(=O)(=O)c4ccc(NCC5CCOCC5)c([N+](=O)[O-])c4)c(Oc4cnc5[nH]ccc5c4)c3)CC2)=C(c2ccc(Cl)cc2)C1 [Venetoclax] + COc1cc(Nc2ncc3c(n2)-c2ccc(Cl)cc2C(c2c(F)cccc2OC)=NC3)ccc1C(=O)O [Alisertib] (first compound max 1 µM, 7x7, partner max 10 µM)	0.0136	-0.006	0.164	-0.0248	0.11	-0.0525	0.0148	0.0326	0.125	-0.0469	-0.0636	-0.0669	0.0861	0.077	0.0101	-0.0547	-0.089	-0.0125	0.0087	0.0168
CC1(C)CCC(CN2CCN(c3ccc(C(=O)NS(=O)(=O)c4ccc(NCC5CCOCC5)c([N+](=O)[O-])c4)c(Oc4cnc5[nH]ccc5c4)c3)CC2)=C(c2ccc(Cl)cc2)C1 [Venetoclax] + C[C@@H]1COCCN1C2=NC(=NC(=C2)C3(CC3)[S@](=N)(=O)C)C4=C5C=CNC5=NC=C4 [AZD6738] (first compound max 1 µM, 7x7, partner max 10 µM)	-0.0134	0.0091	-0.0322	0.0023	0.0109	-0.0144	0.0201	-0.0671	0.0142	-0.01	-0.0888	-0.0036	0.0066	-0.0024	0.0223	-0.019	-0.0383	-0.0032	-0.0253	-0.0102
CC1(C)CCC(CN2CCN(c3ccc(C(=O)NS(=O)(=O)c4ccc(NCC5CCOCC5)c([N+](=O)[O-])c4)c(Oc4cnc5[nH]ccc5c4)c3)CC2)=C(c2ccc(Cl)cc2)C1 [Venetoclax] + C[C@@H](Nc1cc(F)cc(F)c1)c1cc(C(=O)N(C)C)cc2c(=O)cc(N3CCOCC3)oc12 [AZD8186] (first compound max 1 µM, 7x7, partner max 3 µM)	-0.0284	0.0114	0.0531	-0.0251	0.0393	0.0036	0.095	0.0249	0.0918	-0.0416	0.0031	0.0009	0.0357	0.0157	-0.0259	0.0253	-0.0577	-0.0256	-0.0311	-0.0408
